Measurements: US20110173718A1, “HERBICIDE TOLERANT PLANTS” (SYNGENTA CROP PROTECTION, INC., priority 2008, published 2011)

How the values were obtained:
Arabidopsis HST = biological target: T1, Arabidopsis HST (Arabidopsis thaliana, UniProt Q1ACB3); test: HST total extraction (non TLC) assay, recombinant Arabidopsis HST from insect cells; assay type: biochemical
T1 construct: GST (factor Xa cleavage site) (N); made in house; host or cells: Sf9 insect cells (baculovirus, pAcG3X), membrane fraction
T1 sequence (Q1ACB3 70-386): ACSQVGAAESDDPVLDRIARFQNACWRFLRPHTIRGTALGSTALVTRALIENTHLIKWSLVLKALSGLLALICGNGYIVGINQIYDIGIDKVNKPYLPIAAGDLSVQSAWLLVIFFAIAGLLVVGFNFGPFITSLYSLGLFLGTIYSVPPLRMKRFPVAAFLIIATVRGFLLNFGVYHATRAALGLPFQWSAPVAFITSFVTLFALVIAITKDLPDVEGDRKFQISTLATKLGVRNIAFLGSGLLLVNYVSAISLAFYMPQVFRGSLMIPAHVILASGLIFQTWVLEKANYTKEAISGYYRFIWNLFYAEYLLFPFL

weeds [1] = test: Glasshouse weed control, HST inhibitors alone and with A22, pre-emergence; assay type: in vivo; details: 336 h, 14 DAT; for pest or weed control at 15.625 g/ha: HST inhibitor rate 15.625 g/ha; for pest or weed control at 62.5 g/ha: HST inhibitor rate 62.5 g/ha; for pest or weed control at 250 g/ha: HST inhibitor rate 250 g/ha
Summary of the method: (§1)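 Weeds grown in glasshouse trays (24-27 C day, 18-21 C night, ~15 h photoperiod) and track-sprayed in 0.2% X77 at […], pre-emergence or post-emergence at about 7-12 d. HPPD inhibitor A22 applied at 2 g/ha alone or mixed with HST herbicides. Damage scored 0–100% at 14 DAT; synergy calculated by Colby formula.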

weeds [2] = test: Glasshouse weed control, HST inhibitors alone and with A22, post-emergence; assay type: in vivo; details: 336 h, 14 DAT, single replicate, read-out: % control score, Obs; for pest or weed control at 15.625 g/ha: 15.625 g/ha alone; for pest or weed control at 62.5 g/ha: 62.5 g/ha alone; for pest or weed control at 250 g/ha: 250 g/ha alone
Summary of the method: as §1

[3] = BRAPL, read-out: BRAPL Obs, % control score
[4] = PANMI, read-out: PANMI Obs, % control score
[5] = SIDSP, read-out: SIDSP Obs, % control score
[6] = Digitaria sanguinalis, DIGSA, read-out: DIGSA Obs, % control score
[7] = Echinochloa crus-galli, ECHCG, read-out: ECHCG Obs, % control score
[8] = Setaria faberi, SETFA, read-out: SETFA Obs, % control score

Structure (SMILES) | Estimated IC50 (ppm) (Arabidopsis HST) | pest or weed control at 15.625 g/ha (weeds [1]; [3]) | pest or weed control at 62.5 g/ha (weeds [1]; [3]) | pest or weed control at 250 g/ha (weeds [1]; [3]) | pest or weed control at 15.625 g/ha (weeds [1]; [4]) | pest or weed control at 62.5 g/ha (weeds [1]; [4]) | pest or weed control at 250 g/ha (weeds [1]; [4]) | pest or weed control at 15.625 g/ha (weeds [1]; [5]) | pest or weed control at 62.5 g/ha (weeds [1]; [5]) | pest or weed control at 250 g/ha (weeds [1]; [5]) | pest or weed control at 15.625 g/ha (weeds [1]; [6]) | pest or weed control at 62.5 g/ha (weeds [1]; [6]) | pest or weed control at 250 g/ha (weeds [1]; [6]) | pest or weed control at 15.625 g/ha (weeds [1]; [7]) | pest or weed control at 62.5 g/ha (weeds [1]; [7]) | pest or weed control at 250 g/ha (weeds [1]; [7]) | pest or weed control at 15.625 g/ha (weeds [1]; [8]) | pest or weed control at 62.5 g/ha (weeds [1]; [8]) | pest or weed control at 250 g/ha (weeds [1]; [8]) | pest or weed control at 15.625 g/ha (weeds [2]; BRAPL) | also measured
O=c1c(-c2c(F)ccc(F)c2Cl)c(O)c2nccnc2n1CC(F)(F)F [Compound 2.17] | 38 ppm | 0% | 0% | 2% | 0% | 0% | 0% | 0% | 0% | 0% | 0% | 0% | 0% | 0% | 0% | 10% | 0% | 0% | 10% | 1% | pest or weed control at 62.5 g/ha (weeds [2]; BRAPL): 15%; pest or weed control at 250 g/ha (weeds [2]; BRAPL): 50%; pest or weed control at 15.625 g/ha (weeds [2]; PANMI): 0%; pest or weed control at 62.5 g/ha (weeds [2]; PANMI): 10%; pest or weed control at 250 g/ha (weeds [2]; PANMI): 55%; pest or weed control at 15.625 g/ha (weeds [2]; SIDSP): 5%; pest or weed control at 62.5 g/ha (weeds [2]; SIDSP): 15%; pest or weed control at 250 g/ha (weeds [2]; SIDSP): 50%; pest or weed control at 15.625 g/ha (weeds [2]; Digitaria sanguinalis, DIGSA): 0%; pest or weed control at 62.5 g/ha (weeds [2]; Digitaria sanguinalis, DIGSA): 5%; pest or weed control at 250 g/ha (weeds [2]; Digitaria sanguinalis, DIGSA): 50%; pest or weed control at 15.625 g/ha (weeds [2]; Echinochloa crus-galli, ECHCG): 0%; pest or weed control at 62.5 g/ha (weeds [2]; Echinochloa crus-galli, ECHCG): 5%; pest or weed control at 250 g/ha (weeds [2]; Echinochloa crus-galli, ECHCG): 40%; pest or weed control at 15.625 g/ha (weeds [2]; Setaria faberi, SETFA): 0%; pest or weed control at 62.5 g/ha (weeds [2]; Setaria faberi, SETFA): 10%; pest or weed control at 250 g/ha (weeds [2]; Setaria faberi, SETFA): 40%
O=S1(=O)C(c2ccc(Br)cc2C(F)(F)F)=C(O)c2nccnc2N1CC(F)F [Compound 3.5] | 42 ppm | 0% | 0% | 0% | 0% | 0% | 0% | 0% | 0% | 2% | 0% | 0% | 0% | 0% | 0% | 0% | 0% | 0% | 0% | 2% | pest or weed control at 62.5 g/ha (weeds [2]; BRAPL): 30%; pest or weed control at 250 g/ha (weeds [2]; BRAPL): 65%; pest or weed control at 15.625 g/ha (weeds [2]; PANMI): 5%; pest or weed control at 62.5 g/ha (weeds [2]; PANMI): 15%; pest or weed control at 250 g/ha (weeds [2]; PANMI): 70%; pest or weed control at 15.625 g/ha (weeds [2]; SIDSP): 2%; pest or weed control at 62.5 g/ha (weeds [2]; SIDSP): 10%; pest or weed control at 250 g/ha (weeds [2]; SIDSP): 10%; pest or weed control at 15.625 g/ha (weeds [2]; Digitaria sanguinalis, DIGSA): 0%; pest or weed control at 62.5 g/ha (weeds [2]; Digitaria sanguinalis, DIGSA): 0%; pest or weed control at 250 g/ha (weeds [2]; Digitaria sanguinalis, DIGSA): 5%; pest or weed control at 15.625 g/ha (weeds [2]; Echinochloa crus-galli, ECHCG): 5%; pest or weed control at 62.5 g/ha (weeds [2]; Echinochloa crus-galli, ECHCG): 15%; pest or weed control at 250 g/ha (weeds [2]; Echinochloa crus-galli, ECHCG): 30%; pest or weed control at 15.625 g/ha (weeds [2]; Setaria faberi, SETFA): 2%; pest or weed control at 62.5 g/ha (weeds [2]; Setaria faberi, SETFA): 10%; pest or weed control at 250 g/ha (weeds [2]; Setaria faberi, SETFA): 40%
O=c1c(-c2cc(Cl)ccc2C(F)(F)F)c(O)c2nccnc2n1CC(F)F [Compound 2.19] | 6 ppm | 0% | 10% | 40% | 0% | 0% | 60% | 0% | 2% | 10% | 0% | 0% | 20% | 0% | 50% | 90% | 0% | 5% | 60% | 20% | pest or weed control at 62.5 g/ha (weeds [2]; BRAPL): 70%; pest or weed control at 250 g/ha (weeds [2]; BRAPL): 80%; pest or weed control at 15.625 g/ha (weeds [2]; PANMI): 40%; pest or weed control at 62.5 g/ha (weeds [2]; PANMI): 70%; pest or weed control at 250 g/ha (weeds [2]; PANMI): 85%; pest or weed control at 15.625 g/ha (weeds [2]; SIDSP): 15%; pest or weed control at 62.5 g/ha (weeds [2]; SIDSP): 30%; pest or weed control at 250 g/ha (weeds [2]; SIDSP): 50%; pest or weed control at 15.625 g/ha (weeds [2]; Digitaria sanguinalis, DIGSA): 30%; pest or weed control at 62.5 g/ha (weeds [2]; Digitaria sanguinalis, DIGSA): 50%; pest or weed control at 250 g/ha (weeds [2]; Digitaria sanguinalis, DIGSA): 70%; pest or weed control at 15.625 g/ha (weeds [2]; Echinochloa crus-galli, ECHCG): 30%; pest or weed control at 62.5 g/ha (weeds [2]; Echinochloa crus-galli, ECHCG): 45%; pest or weed control at 250 g/ha (weeds [2]; Echinochloa crus-galli, ECHCG): 75%; pest or weed control at 15.625 g/ha (weeds [2]; Setaria faberi, SETFA): 30%; pest or weed control at 62.5 g/ha (weeds [2]; Setaria faberi, SETFA): 60%; pest or weed control at 250 g/ha (weeds [2]; Setaria faberi, SETFA): 80%
Cn1c(=O)c(-c2c(Cl)cccc2C(F)(F)F)c(O)c2nccnc21 [Compound 2.16] | 78 ppm | 0% | 5% | 50% | 0% | 0% | 40% | 0% | 0% | 0% | 0% | 0% | 0% | 0% | 15% | 60% | 0% | 10% | 45% | 10% | pest or weed control at 62.5 g/ha (weeds [2]; BRAPL): 30%; pest or weed control at 250 g/ha (weeds [2]; BRAPL): 70%; pest or weed control at 15.625 g/ha (weeds [2]; PANMI): 5%; pest or weed control at 62.5 g/ha (weeds [2]; PANMI): 40%; pest or weed control at 250 g/ha (weeds [2]; PANMI): 70%; pest or weed control at 15.625 g/ha (weeds [2]; SIDSP): 5%; pest or weed control at 62.5 g/ha (weeds [2]; SIDSP): 40%; pest or weed control at 250 g/ha (weeds [2]; SIDSP): 50%; pest or weed control at 15.625 g/ha (weeds [2]; Digitaria sanguinalis, DIGSA): 0%; pest or weed control at 62.5 g/ha (weeds [2]; Digitaria sanguinalis, DIGSA): 2%; pest or weed control at 250 g/ha (weeds [2]; Digitaria sanguinalis, DIGSA): 40%; pest or weed control at 15.625 g/ha (weeds [2]; Echinochloa crus-galli, ECHCG): 2%; pest or weed control at 62.5 g/ha (weeds [2]; Echinochloa crus-galli, ECHCG): 15%; pest or weed control at 250 g/ha (weeds [2]; Echinochloa crus-galli, ECHCG): 50%; pest or weed control at 15.625 g/ha (weeds [2]; Setaria faberi, SETFA): 1%; pest or weed control at 62.5 g/ha (weeds [2]; Setaria faberi, SETFA): 30%; pest or weed control at 250 g/ha (weeds [2]; Setaria faberi, SETFA): 65%
